Test results taken from DBAASP.
≈ marks a conversion by molar mass, not a printed value.

What was measured:
Experiment in all cases: ≥ marks a high value that may be exact or a test limit, other limits are often not marked, values filed in µg/mL are converted to µM
Enterococcus faecium VR = tested on: Enterococcus faecium VR
Enterococcus faecalis = tested on: Enterococcus faecalis
Enterococcus faecalis VR = tested on: Enterococcus faecalis VR
[1] = tested on: Salmonella typhimurium KCTC 1926
[2] = tested on: Staphylococcus epidermidis KCTC 1917
[3] = tested on: Bacillus subtilis KCTC 3068
[4] = tested on: Staphylococcus aureus KCTC 1621
[5] = tested on: Escherichia coli KCTC 1682
Enterococcus faecium = tested on: Enterococcus faecium
Staphylococcus aureus MR = tested on: Staphylococcus aureus MR
[6] = tested on: Pseudomonas aeruginosa KCTC 1637
Staphylococcus aureus = tested on: Staphylococcus aureus
[7] = tested on: Staphylococcus aureus ATCC 6538P
Escherichia coli JM109 = tested on: Escherichia coli JM109
[8] = tested on: Staphylococcus aureus ATCC 9144
[9] = tested on: Bacillus subtilis ATCC 6633
[10] = tested on: Escherichia coli ATCC 10536
[11] = tested on: Escherichia coli DH5alpha
[12] = tested on: Pseudomonas aeruginosa ATCC 27853
[13] = tested on: Staphylococcus aureus NCTC 8325-4
[14] = tested on: Staphylococcus aureus RN4220
[15] = tested on: Cronobacter sakazakii DSM 4485
[16] = tested on: Staphylococcus aureus RF122
[17] = tested on: Klebsiella pneumoniae NCIMB 13218
[18] = tested on: Cronobacter sakazakii DPC 6440
[19] = tested on: Salmonella enterica subsp. enterica serovar Typhimurium LT2
[20] = tested on: Cronobacter sakazakii ATCC BAA-894
[21] = tested on: Staphylococcus aureus SA113
[22] = tested on: Cronobacter muytjensii ATCC 51329
[23] = tested on: Pseudomonas fluorescens NCIMB 9046
[24] = tested on: Escherichia coli NCIMB 11843
[25] = tested on: Staphylococcus aureus Newman
[26] = tested on: Staphylococcus aureus ATCC 29213
[27] = tested on: Salmonella enterica subsp. enterica serovar Typhi CMCC 50071
[28] = tested on: Salmonella enterica subsp. enterica serovar Pullorum C79-13
[29] = tested on: Staphylococcus aureus ATCC 25923
Escherichia coli UB1005 = tested on: Escherichia coli UB1005
[30] = tested on: Salmonella enterica subsp. enterica serovar Typhimurium ATCC 14028
[31] = tested on: Salmonella enterica subsp. enterica serovar Typhimurium C77-31
[32] = tested on: Staphylococcus epidermidis ATCC 12228
[33] = tested on: Corynebacterium glutamicum ATCC 13032

Structure (SMILES)	MIC (Enterococcus faecium VR) [µM]	MIC (Enterococcus faecalis) [µM]	MIC (Enterococcus faecalis VR) [µM]	MIC [1] [µM]	MIC [2] [µM]	MIC [3] [µM]	MIC [4] [µM]	MIC [5] [µM]	MIC (Enterococcus faecium) [µM]	MIC (Staphylococcus aureus MR) [µM]	MIC [6] [µM]	other results
CC(C)C[C@H](NC(=O)[C@H](CS)NC(=O)[C@H](CCCCN)NC(=O)[C@H](C)NC(=O)[C@H](C)N)C(=O)N[C@H](C(=O)N[C@@H](CCC(N)=O)C(=O)N[C@@H](CCCN=C(N)N)C(=O)N[C@@H](CCCN=C(N)N)C(=O)N[C@@H](CCCN=C(N)N)C(N)=O)C(C)C [AAKCLVQRRR]	30 (≈ 36 µg/mL)	30 (≈ 36 µg/mL)	30 (≈ 36 µg/mL)	7.5 (≈ 9 µg/mL)	7.5 (≈ 9 µg/mL)	15 (≈ 18 µg/mL)	15 (≈ 18 µg/mL)	30 (≈ 36 µg/mL)	30 (≈ 36 µg/mL)	15 (≈ 18 µg/mL)	7.5 (≈ 9 µg/mL)	
CC[C@H](C)[C@H](NC(=O)[C@H](C)NC(=O)[C@H](CC(C)C)NC(=O)[C@H](CS)NC(=O)[C@H](Cc1cnc[nH]1)NC(=O)[C@H](C)NC(=O)[C@H](C)N)C(=O)NCC(=O)N[C@@H](CCCN=C(N)N)C(=O)N[C@@H](CCCCN)C(N)=O [AAHCLAIGRK]	3.8	15	30	7.5	7.5	7.5	7.5	7.5	7.5	7.5	7.5	
CC[C@H](C)[C@H](NC(=O)[C@H](C)NC(=O)[C@H](CC(C)C)NC(=O)[C@H](CS)NC(=O)[C@H](Cc1cnc[nH]1)NC(=O)[C@H](C)NC(=O)[C@H](C)N)C(=O)NCC(=O)N[C@@H](CCCN=C(N)N)C(=O)N[C@@H](CCCN=C(N)N)C(N)=O [AAHCLAIGRR]	15	15	30	15	15	7.5	7.5	15	15	30	15	MIC (Staphylococcus aureus): > 60 µM; MIC [7]: 4.68 µM; MIC (Escherichia coli JM109): 15 µM
CC[C@H](C)[C@H](NC(=O)CNC(=O)CN)C(=O)N[C@@H](CC(C)C)C(=O)N[C@H](C(=O)N[C@@H](C)C(=O)N[C@@H](CCCCN)C(=O)N[C@@H](CC(C)C)C(=O)N[C@H](C(=O)N[C@H](C(=O)N[C@H](C(=O)N[C@@H](CC(C)C)C(=O)NCC(=O)N1CCC[C@H]1C(=O)N[C@@H](C)C(=O)N[C@@H](CC(C)C)C(=O)N[C@H](C(=O)N[C@@H](CO)C(=O)N[C@@H](Cc1c[nH]c2ccccc12)C(=O)N[C@H](C(=O)N[C@@H](CCCCN)C(=O)N[C@@H](CCCN=C(N)N)C(=O)N[C@@H](CCCCN)C(=O)N[C@@H](CCCN=C(N)N)C(=O)N[C@@H](CCC(N)=O)C(=O)N[C@@H](CCC(N)=O)C(N)=O)[C@@H](C)CC)[C@@H](C)CC)[C@@H](C)O)[C@@H](C)O)C(C)C)C(C)C [GGILVAKLVTTLGPALISWIKRKRQQ]												MIC [8]: 5 µM (≈ 14.2 µg/mL); MIC [9]: 5.8 µM (≈ 16.5 µg/mL); MIC [10]: 4.7 µM (≈ 13.4 µg/mL); MIC [11]: 4.8 µM (≈ 13.7 µg/mL)
CC(C)C[C@H](NC(=O)[C@H](C)NC(=O)[C@@H](N)C(C)C)C(=O)N[C@@H](CC(N)=O)C(=O)N[C@@H](CCC(=O)O)C(=O)N[C@@H](CC(N)=O)C(=O)N[C@@H](CC(C)C)C(=O)N[C@@H](CC(C)C)C(=O)N[C@@H](CCCN=C(N)N)C(=O)O [VALNENLLR]												MIC [12]: 32 µM (≈ 33.3 µg/mL); MIC [13]: ≥ 625 µM; MIC [14]: ≥ 1250 µM; MIC [15]: ≥ 2500 µM; MIC [16]: ≥ 1250 µM; MIC [17]: ≥ 2500 µM; MIC [18]: ≥ 625 µM; MIC [19]: ≥ 2500 µM; MIC [20]: ≥ 1250 µM; MIC [21]: ≥ 1250 µM; MIC [22]: ≥ 625 µM; MIC [23]: ≥ 2500 µM; MIC [24]: ≥ 2500 µM; MIC [25]: ≥ 1250 µM
NC(=O)CC[C@H](NC(=O)[C@H](Cc1c[nH]c2ccccc12)NC(=O)[C@H](CCCN=C(N)N)NC(=O)[C@H](CCCN=C(N)N)NC(=O)[C@@H]1CCCN1C(=O)[C@@H](N)Cc1ccccc1)C(=O)N[C@@H](Cc1c[nH]c2ccccc12)C(=O)N[C@@H](CCCN=C(N)N)C(=O)N[C@@H](CCCN=C(N)N)C(=O)N1CCC[C@H]1C(=O)N[C@@H](Cc1ccccc1)C(N)=O [FPRRWQWRRPF]												MIC [26]: 32 µM (≈ 52.2 µg/mL); MIC [27]: ≥ 128 µM; MIC [28]: 16 µM (≈ 26.1 µg/mL); MIC [29]: 32 µM (≈ 52.2 µg/mL); MIC (Escherichia coli UB1005): 8 µM (≈ 13 µg/mL); MIC [30]: 32 µM (≈ 52.2 µg/mL); MIC [31]: ≥ 64 µM; MIC [32]: 64 µM (≈ 104 µg/mL)
CC[C@H](C)[C@H](NC(=O)[C@H](Cc1c[nH]c2ccccc12)NC(=O)[C@@H](N)CCCCN)C(=O)N[C@H]1CSSC[C@@H](C(=O)N[C@@H](CCCN=C(N)N)C(=O)N[C@@H](Cc2c[nH]c3ccccc23)C(=O)N[C@@H](CCCN=C(N)N)C(=O)O)NC(=O)[C@H](Cc2ccc(O)cc2)NC(=O)[C@H]([C@@H](C)O)NC(=O)[C@H]([C@@H](C)CC)NC(=O)[C@H](Cc2c[nH]c3ccccc23)NC(=O)[C@H](CCCN=C(N)N)NC(=O)CNC(=O)[C@H](CCCN=C(N)N)NC(=O)[C@H](Cc2ccc(O)cc2)NC(=O)[C@H](Cc2c[nH]c3ccccc23)NC(=O)[C@H](CC(C)C)NC(=O)[C@H](CCCN=C(N)N)NC(=O)[C@H](CCCN=C(N)N)NC1=O [KWICRRLWYRGRWITYCRWR]												MIC [33]: 0.78 µM (≈ 2.23 µg/mL); MIC [11]: 12.5 µM (≈ 35.7 µg/mL)
